Measurements: patent US10800791B2, “Triazole ACC inhibitors and uses thereof” (Gilead Apollo, LLC, priority 2015, dated 2020)
pIC50: −log10 of the molar value. Values after ≈ are worked out from the molar mass of the structure shown. Read-outs that look alike come from different tables or passages of the source.

Experiments:
human (hACC2) = human (hACC2) (Homo sapiens, UniProt O00763); assay: In vitro ACC inhibition assay (ADP-Glo), hACC2; type: biochemical; settings: 5 nM ACC2, 20 μM ATP, 20 μM acetyl-CoA
Method: The detailed procedure is as follows. […] 10 μL ADP glo reagent was added. […] 20 μL kinase detection reagent was added.

C. albicans = assay: Antifungal Activity Assay (broth microtiter MIC), C. albicans; type: cell-based, Candida albicans; settings: Candida albicans, ATCC90028, 48 h
Summary of the method: (§1)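 Endpoint: lowest concentration visibly inhibiting growth relative to control after 48 h. Inoculum of 2.5×10^3 CFU/mL final in RPMI 1640+MOPS, prepared from overnight 35° C agar cultures; test compounds diluted in water to 128 μg/mL before plating.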

C. krusei = assay: Antifungal Activity Assay (broth microtiter MIC), C. krusei; type: cell-based, Candida krusei; settings: Pichia kudriavzevii, ATCC6258, 48 h
Summary of the method: as §1

C. parapsilosis = assay: Antifungal Activity Assay (broth microtiter MIC), C. parapsilosis; type: cell-based, Candida parapsilosis; settings: Lodderomyces parapsilosis, ATCC22019, 48 h
Summary of the method: as §1

fungal (fACC2) = fungal (fACC2) (UniProt Q00955); settings: read-out: fACC2 (in vitro ACC2 Inhibition Assay, IC50), ADP-Glo, 5 nM ACC2, 20 μM ATP, 20 μM acetyl-CoA
[1] = read-out: MIC, C. albicans ATCC 90028, Table 3b (additional results), 3 replicates, MIC recorded at 48 h
[2] = read-out: MIC, C. krusei ATCC 6258, Table 3b (additional results), 3 replicates, MIC recorded at 48 h
[3] = read-out: MIC, C. parapsilosis ATCC 22019, Table 3b (additional results), 3 replicates, MIC recorded at 48 h
[4] = Table 3a, ATCC 90028, 3 replicates, MIC recorded at 48 h, read-out: MIC, C. albicans ATCC 90028
[5] = Table 3b (additional results), ATCC 90028, 3 replicates, MIC recorded at 48 h, read-out: MIC, C. albicans ATCC 90028
[6] = Table 3a, ATCC 6258, 3 replicates, MIC recorded at 48 h, read-out: MIC, C. krusei ATCC 6258
[7] = Table 3b (additional results), ATCC 6258, 3 replicates, MIC recorded at 48 h, read-out: MIC, C. krusei ATCC 6258
[8] = Table 3a, ATCC 22019, 3 replicates, MIC recorded at 48 h, read-out: MIC, C. parapsilosis ATCC 22019
[9] = Table 3b (additional results), ATCC 22019, 3 replicates, MIC recorded at 48 h, read-out: MIC, C. parapsilosis ATCC 22019

fungal (fACC2), sequence (Q00955 whole entry): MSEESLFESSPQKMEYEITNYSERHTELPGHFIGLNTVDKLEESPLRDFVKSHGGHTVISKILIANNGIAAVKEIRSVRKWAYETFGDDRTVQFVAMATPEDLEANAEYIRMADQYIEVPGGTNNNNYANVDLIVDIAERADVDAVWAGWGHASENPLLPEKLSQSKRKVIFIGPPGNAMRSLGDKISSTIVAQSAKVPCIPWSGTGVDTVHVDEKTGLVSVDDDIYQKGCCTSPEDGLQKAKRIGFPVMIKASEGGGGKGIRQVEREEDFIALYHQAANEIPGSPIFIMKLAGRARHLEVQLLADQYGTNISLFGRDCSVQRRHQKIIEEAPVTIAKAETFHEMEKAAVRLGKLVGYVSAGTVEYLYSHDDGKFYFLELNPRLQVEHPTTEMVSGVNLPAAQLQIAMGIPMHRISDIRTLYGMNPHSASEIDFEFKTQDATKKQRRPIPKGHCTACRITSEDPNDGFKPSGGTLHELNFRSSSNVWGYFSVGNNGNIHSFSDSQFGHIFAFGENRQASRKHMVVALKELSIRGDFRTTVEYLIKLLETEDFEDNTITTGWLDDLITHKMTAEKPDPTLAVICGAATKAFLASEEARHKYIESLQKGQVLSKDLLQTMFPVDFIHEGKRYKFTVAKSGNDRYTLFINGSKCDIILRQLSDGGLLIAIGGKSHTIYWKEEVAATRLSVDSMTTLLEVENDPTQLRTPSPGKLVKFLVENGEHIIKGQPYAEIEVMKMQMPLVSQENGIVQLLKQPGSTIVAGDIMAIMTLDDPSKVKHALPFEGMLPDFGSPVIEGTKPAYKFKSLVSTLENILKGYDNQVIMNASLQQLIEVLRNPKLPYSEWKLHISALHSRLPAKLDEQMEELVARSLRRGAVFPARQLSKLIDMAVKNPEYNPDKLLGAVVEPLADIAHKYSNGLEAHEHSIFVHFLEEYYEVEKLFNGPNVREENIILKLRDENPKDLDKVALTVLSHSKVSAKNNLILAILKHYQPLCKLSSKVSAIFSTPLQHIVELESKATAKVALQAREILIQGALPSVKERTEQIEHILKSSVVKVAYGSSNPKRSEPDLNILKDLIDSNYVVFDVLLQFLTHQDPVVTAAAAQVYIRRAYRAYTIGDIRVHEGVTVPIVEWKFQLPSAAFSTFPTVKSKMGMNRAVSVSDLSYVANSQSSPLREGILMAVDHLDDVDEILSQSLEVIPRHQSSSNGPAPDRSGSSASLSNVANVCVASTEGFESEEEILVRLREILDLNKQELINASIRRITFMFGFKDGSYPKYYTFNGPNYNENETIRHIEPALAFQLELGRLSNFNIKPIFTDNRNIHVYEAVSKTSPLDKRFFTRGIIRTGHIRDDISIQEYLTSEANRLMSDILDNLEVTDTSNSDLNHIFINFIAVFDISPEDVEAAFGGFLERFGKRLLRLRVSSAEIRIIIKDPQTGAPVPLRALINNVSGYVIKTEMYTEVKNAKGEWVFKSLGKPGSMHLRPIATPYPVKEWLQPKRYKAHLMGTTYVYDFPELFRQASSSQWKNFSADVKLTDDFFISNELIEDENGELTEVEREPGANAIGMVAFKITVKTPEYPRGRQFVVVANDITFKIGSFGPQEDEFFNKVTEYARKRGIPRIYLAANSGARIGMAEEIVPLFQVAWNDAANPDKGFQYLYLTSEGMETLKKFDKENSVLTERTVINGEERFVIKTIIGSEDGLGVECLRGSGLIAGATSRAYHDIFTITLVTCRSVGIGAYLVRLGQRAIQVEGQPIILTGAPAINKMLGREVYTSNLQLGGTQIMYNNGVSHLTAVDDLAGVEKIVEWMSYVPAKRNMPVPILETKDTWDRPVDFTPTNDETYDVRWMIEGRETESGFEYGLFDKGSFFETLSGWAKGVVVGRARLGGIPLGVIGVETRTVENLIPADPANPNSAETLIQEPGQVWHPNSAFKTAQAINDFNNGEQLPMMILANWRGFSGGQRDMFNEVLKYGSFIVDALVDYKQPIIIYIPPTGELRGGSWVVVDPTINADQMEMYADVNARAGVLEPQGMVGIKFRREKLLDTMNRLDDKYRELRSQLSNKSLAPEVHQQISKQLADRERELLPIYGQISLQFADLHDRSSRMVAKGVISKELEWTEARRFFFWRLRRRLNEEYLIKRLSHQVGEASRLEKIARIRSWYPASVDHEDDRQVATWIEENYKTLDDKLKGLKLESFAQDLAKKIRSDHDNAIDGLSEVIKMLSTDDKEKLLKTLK
human (hACC2), sequence (O00763 whole entry): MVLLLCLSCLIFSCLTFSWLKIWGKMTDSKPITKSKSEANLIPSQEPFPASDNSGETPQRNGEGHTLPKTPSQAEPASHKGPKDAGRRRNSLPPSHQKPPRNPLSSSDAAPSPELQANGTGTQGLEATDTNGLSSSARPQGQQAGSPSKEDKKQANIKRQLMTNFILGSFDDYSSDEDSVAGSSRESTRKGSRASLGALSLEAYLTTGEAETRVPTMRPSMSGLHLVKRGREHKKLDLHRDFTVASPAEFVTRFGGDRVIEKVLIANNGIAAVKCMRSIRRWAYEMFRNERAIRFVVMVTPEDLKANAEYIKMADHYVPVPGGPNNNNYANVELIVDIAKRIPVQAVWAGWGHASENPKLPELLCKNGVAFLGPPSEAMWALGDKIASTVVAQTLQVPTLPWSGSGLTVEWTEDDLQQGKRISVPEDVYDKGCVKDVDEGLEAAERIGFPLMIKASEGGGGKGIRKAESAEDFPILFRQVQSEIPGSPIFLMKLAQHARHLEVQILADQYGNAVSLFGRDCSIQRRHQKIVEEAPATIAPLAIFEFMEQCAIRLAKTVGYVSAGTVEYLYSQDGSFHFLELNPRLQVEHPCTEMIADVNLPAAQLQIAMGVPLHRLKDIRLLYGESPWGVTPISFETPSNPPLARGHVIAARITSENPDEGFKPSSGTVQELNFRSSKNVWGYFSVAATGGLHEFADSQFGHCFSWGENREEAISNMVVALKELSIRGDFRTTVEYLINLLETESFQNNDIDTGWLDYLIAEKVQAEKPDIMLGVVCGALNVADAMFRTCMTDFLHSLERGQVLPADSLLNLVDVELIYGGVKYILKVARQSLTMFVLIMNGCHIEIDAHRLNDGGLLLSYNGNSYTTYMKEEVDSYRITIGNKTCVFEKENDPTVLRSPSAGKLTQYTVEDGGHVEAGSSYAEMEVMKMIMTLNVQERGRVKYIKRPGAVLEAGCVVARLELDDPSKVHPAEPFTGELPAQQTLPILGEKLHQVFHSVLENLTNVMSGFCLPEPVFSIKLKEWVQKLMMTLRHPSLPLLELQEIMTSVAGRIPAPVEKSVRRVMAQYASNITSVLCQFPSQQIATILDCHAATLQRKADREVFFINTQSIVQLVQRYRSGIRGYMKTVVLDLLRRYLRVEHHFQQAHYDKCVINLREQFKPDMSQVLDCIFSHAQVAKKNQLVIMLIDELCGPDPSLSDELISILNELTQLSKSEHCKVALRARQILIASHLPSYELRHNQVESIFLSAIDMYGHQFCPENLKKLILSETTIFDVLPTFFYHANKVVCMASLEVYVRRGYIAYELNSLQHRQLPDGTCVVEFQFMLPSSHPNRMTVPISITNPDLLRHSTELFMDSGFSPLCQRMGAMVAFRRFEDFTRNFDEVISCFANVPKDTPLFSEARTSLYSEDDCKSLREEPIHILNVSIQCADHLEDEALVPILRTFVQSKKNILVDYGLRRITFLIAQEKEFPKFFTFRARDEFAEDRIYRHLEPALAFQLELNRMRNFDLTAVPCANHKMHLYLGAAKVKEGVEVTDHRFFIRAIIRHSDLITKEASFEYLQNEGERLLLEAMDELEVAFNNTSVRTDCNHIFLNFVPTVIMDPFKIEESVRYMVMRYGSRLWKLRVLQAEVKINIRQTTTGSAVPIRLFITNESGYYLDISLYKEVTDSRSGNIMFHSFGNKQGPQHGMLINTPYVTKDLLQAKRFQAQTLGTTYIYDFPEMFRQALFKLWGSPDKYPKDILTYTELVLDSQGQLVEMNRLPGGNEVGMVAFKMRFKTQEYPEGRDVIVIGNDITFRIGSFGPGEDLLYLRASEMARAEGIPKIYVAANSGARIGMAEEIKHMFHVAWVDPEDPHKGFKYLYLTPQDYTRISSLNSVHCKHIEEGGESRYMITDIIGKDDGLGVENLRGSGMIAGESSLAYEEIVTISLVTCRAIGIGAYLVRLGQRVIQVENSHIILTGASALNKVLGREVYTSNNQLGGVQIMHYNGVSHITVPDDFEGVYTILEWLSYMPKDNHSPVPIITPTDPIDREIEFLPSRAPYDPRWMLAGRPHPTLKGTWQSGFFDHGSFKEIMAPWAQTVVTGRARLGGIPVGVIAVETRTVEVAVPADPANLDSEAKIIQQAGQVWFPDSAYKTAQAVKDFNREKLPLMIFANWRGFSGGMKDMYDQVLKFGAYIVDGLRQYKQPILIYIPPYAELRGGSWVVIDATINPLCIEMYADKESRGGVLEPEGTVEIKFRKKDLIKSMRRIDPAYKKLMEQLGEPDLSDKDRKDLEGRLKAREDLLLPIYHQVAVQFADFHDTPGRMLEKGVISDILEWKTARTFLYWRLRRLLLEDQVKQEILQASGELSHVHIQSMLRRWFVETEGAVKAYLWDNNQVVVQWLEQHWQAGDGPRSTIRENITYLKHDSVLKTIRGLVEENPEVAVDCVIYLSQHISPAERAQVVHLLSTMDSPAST

SMILES | pIC50 (human (hACC2); Table 2a) | pIC50 (human (hACC2); Table 2b, additional results) | MIC (C. albicans; read-out: MIC, C. albicans ATCC 90028, Table 3a, 3 replicates, MIC recorded at 48 h) [µg/mL] | MIC (C. albicans; [1]) [µg/mL] | MIC (C. krusei; read-out: MIC, C. krusei ATCC 6258, Table 3a, 3 replicates, MIC recorded at 48 h) [µg/mL] | MIC (C. krusei; [2]) [µg/mL] | MIC (C. parapsilosis; read-out: MIC, C. parapsilosis ATCC 22019, Table 3a, 3 replicates, MIC recorded at 48 h) [µg/mL] | MIC (C. parapsilosis; [3]) [µg/mL] | pIC50 (fungal (fACC2); Table 2a) | pIC50 (fungal (fACC2); Table 2b, additional results) | MIC (C. albicans; [4]) [µg/mL] | MIC (C. albicans; [5]) [µg/mL] | MIC (C. krusei; [6]) [µg/mL] | MIC (C. krusei; [7]) [µg/mL] | MIC (C. parapsilosis; [8]) [µg/mL] | MIC (C. parapsilosis; [9]) [µg/mL]
COc1ccc(F)cc1[C@H](Cn1c(=O)n(C(C)(C)C(=O)NC(C)C)c(=O)c2c(C)c(-n3nccn3)sc21)O[C@H]1CC[C@H](C#N)CC1 [Compound I-159] | 8.30 to 9.00 | 8.30 to 9.00 | 0.25 to 1 (≈ 0.384 to 1.53 µM) | 0.25 to 1 (≈ 0.384 to 1.53 µM) | 0.25 to 1 (≈ 0.384 to 1.53 µM) | 0.06 to 0.249 (≈ 0.0921 to 0.382 µM) | 0.25 to 1 (≈ 0.384 to 1.53 µM) | 0.25 to 1 (≈ 0.384 to 1.53 µM) | 8.30 to 9.00 | 8.30 to 9.00 |  |  |  |  |  | 
COc1ccc(F)cc1[C@H](Cn1c(=O)n(C(C)(C)C(=O)NC(C)(C)C)c(=O)c2c(C)c(-n3nccn3)sc21)OCCCO [Compound I-160] | 8.00 to 8.30 | 8.00 to 8.30 |  |  |  |  |  |  | 8.30 to 9.00 | 8.30 to 9.00 | 2.1 to 4 (≈ 3.41 to 6.49 µM) | 2.01 to 4 (≈ 3.26 to 6.49 µM) | 0.25 to 1 (≈ 0.405 to 1.62 µM) | 1.01 to 2 (≈ 1.64 to 3.24 µM) | 1.1 to 2 (≈ 1.78 to 3.24 µM) | 2.01 to 4 (≈ 3.26 to 6.49 µM)
COc1ccc(F)cc1[C@H](Cn1c(=O)n(C(C)(C)C(=O)NO)c(=O)c2c(C)c(-n3nccn3)sc21)OCCCO [Compound I-161] | 8.30 to 9.00 | 8.30 to 9.00 |  |  |  |  |  |  | 9.00 to 9.40 | 9.00 to 9.52 | 2.1 to 4 (≈ 3.64 to 6.94 µM) | 2.01 to 4 (≈ 3.49 to 6.94 µM) | 2.1 to 4 (≈ 3.64 to 6.94 µM) | 1.01 to 2 (≈ 1.75 to 3.47 µM) | 2.1 to 4 (≈ 3.64 to 6.94 µM) | 2.01 to 4 (≈ 3.49 to 6.94 µM)
COc1ccc(F)cc1[C@H](Cn1c(=O)n(C(C)(C)C(=O)N(O)C(C)C)c(=O)c2c(C)c(-n3nccn3)sc21)OCCCO [Compound I-163] | 8.00 to 8.30 | 8.00 to 8.30 |  |  |  |  |  |  | 8.30 to 9.00 | 8.30 to 9.00 | 0.25 to 1 (≈ 0.404 to 1.62 µM) | 1.01 to 2 (≈ 1.63 to 3.23 µM) | 0.25 to 1 (≈ 0.404 to 1.62 µM) | 0.25 to 1 (≈ 0.404 to 1.62 µM) | 0.25 to 1 (≈ 0.404 to 1.62 µM) | 2.01 to 4 (≈ 3.25 to 6.47 µM)
COc1ccc(F)cc1[C@H](Cn1c(=O)n([C@H](C)C(=O)N(C)C(C)C)c(=O)c2c(C)c(-n3nccn3)sc21)OC1CCC(=O)CC1 [Compound I-164] | 8.00 to 8.30 | 8.00 to 8.30 |  |  |  |  |  |  | 8.30 to 9.00 | 8.30 to 9.00 | 0.25 to 1 (≈ 0.39 to 1.56 µM) | 0.25 to 1 (≈ 0.39 to 1.56 µM) | 0.25 to 1 (≈ 0.39 to 1.56 µM) | 0.25 to 1 (≈ 0.39 to 1.56 µM) | 0.25 to 1 (≈ 0.39 to 1.56 µM) | 1.01 to 2 (≈ 1.58 to 3.12 µM)
COc1ccc(F)cc1[C@H](Cn1c(=O)n([C@@H](C)C(=O)N(C)C(C)C)c(=O)c2c(C)c(-n3nccn3)sc21)OC1CCC(=O)CC1 [Compound I-165] | 8.00 to 8.30 | 8.00 to 8.30 |  |  |  |  |  |  | 8.30 to 9.00 | 8.30 to 9.00 | 0.25 to 1 (≈ 0.39 to 1.56 µM) | 0.25 to 1 (≈ 0.39 to 1.56 µM) | 0.25 to 1 (≈ 0.39 to 1.56 µM) | 0.25 to 1 (≈ 0.39 to 1.56 µM) | 1.1 to 2 (≈ 1.72 to 3.12 µM) | 1.01 to 2 (≈ 1.58 to 3.12 µM)
COc1ccc(F)cc1[C@H](Cn1c(=O)n([C@H](C)C(=O)N(C)C(C)C)c(=O)c2c(C)c(-n3nccn3)sc21)O[C@H]1CC[C@@H](O)CC1 [Compound I-166] | 8.30 to 9.00 | 8.30 to 9.00 |  |  |  |  |  |  | 9.00 to 9.40 | 9.00 to 9.52 | 0.25 to 1 (≈ 0.389 to 1.56 µM) | 0.25 to 1 (≈ 0.389 to 1.56 µM) | 0.25 to 1 (≈ 0.389 to 1.56 µM) | 1.01 to 2 (≈ 1.57 to 3.11 µM) | 0.25 to 1 (≈ 0.389 to 1.56 µM) | 1.01 to 2 (≈ 1.57 to 3.11 µM)
COc1ccc(F)cc1[C@H](Cn1c(=O)n([C@@H](C)C(=O)N(C)C(C)C)c(=O)c2c(C)c(-n3nccn3)sc21)O[C@H]1CC[C@@H](O)CC1 [Compound I-167] | 8.00 to 8.30 | 8.00 to 8.30 |  |  |  |  |  |  | 9.00 to 9.40 | 9.00 to 9.52 | 1.1 to 2 (≈ 1.71 to 3.11 µM) | 0.25 to 1 (≈ 0.389 to 1.56 µM) | 0.25 to 1 (≈ 0.389 to 1.56 µM) | 1.01 to 2 (≈ 1.57 to 3.11 µM) | 2.1 to 4 (≈ 3.27 to 6.22 µM) | 1.01 to 2 (≈ 1.57 to 3.11 µM)
COc1ccc(F)cc1[C@H](Cn1c(=O)n(C(C)(C)C(=O)NC(C)C)c(=O)c2c(C)c(-n3nccn3)sc21)OCCC(C)(C)O [Compound I-168] | 8.00 to 8.30 | 8.00 to 8.30 |  | 0.25 to 1 (≈ 0.396 to 1.59 µM) |  | 0.25 to 1 (≈ 0.396 to 1.59 µM) |  | 0.25 to 1 (≈ 0.396 to 1.59 µM) | 8.30 to 9.00 | 8.30 to 9.00 |  |  |  |  |  | 
